Test results from ChEMBL document CHEMBL1201862, “PubChem BioAssay data set” (2004).
Where “and” joins values, the source holds several entries; their conditions need not be identical. Identical values can stand only once.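 How tested: cells in 96-well plates exposed to compound for 48 hours at five concentrations. GI50 marks 50% less growth.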 Calls of active or inactive are those of the source. No stated cut-off is given here; in the data, active = GI50 up to about 1.1 µM and inactive = higher.

Legend:
Test in all cases: inhibition of tumour cell growth, NCI panel, 48 h
MOLT-4 = system: MOLT-4
MDA-N = system: MDA-N
UACC-62 = system: UACC-62
SN12C = system: SN12C
SNB-19 = system: SNB-19
U-251 = system: U-251
LOX IMVI = system: LOX IMVI
786-0 = system: 786-0
SK-OV-3 = system: SK-OV-3
HCT-15 = system: HCT-15
COLO 205 = system: COLO 205
UO-31 = system: UO-31
HOP-92 = system: HOP-92
HCC 2998 = system: HCC 2998
KM12 = system: KM12
NCI-H226 = system: NCI-H226
SW-620 = system: SW-620
OVCAR-4 = system: OVCAR-4
M14 = system: M14
SK-MEL-28 = system: SK-MEL-28
MCF7 = system: MCF7
EKVX = system: EKVX
SK-MEL-2 = system: SK-MEL-2
DU-145 = system: DU-145
A498 = system: A498
ACHN = system: ACHN
SF-539 = system: SF-539
NCI/ADR-RES = system: NCI/ADR-RES
OVCAR-3 = system: OVCAR-3
MDA-MB-435 = system: MDA-MB-435
K562 = system: K562
HCT-116 = system: HCT-116
PC-3 = system: PC-3
SNB-75 = system: SNB-75
TK-10 = system: TK-10
SF-295 = system: SF-295
RPMI-8226 = system: RPMI-8226
CAKI-1 = system: CAKI-1
CCRF-CEM = system: CCRF-CEM
RXF 393 = system: RXF 393
SK-MEL-5 = system: SK-MEL-5
UACC-257 = system: UACC-257
MDA-MB-231 = system: MDA-MB-231
OVCAR-5 = system: OVCAR-5
HOP-62 = system: HOP-62
T47D = system: T47D
SF-268 = system: SF-268
A549 = system: A549
Hs-578T = system: Hs-578T
IGROV-1 = system: IGROV-1
HT-29 = system: HT-29
NCI-H23 = system: NCI-H23
NCI-H460 = system: NCI-H460

`Cc1cccc(-c2cc(=S)c3cc(N4CCCC4)ccc3[nH]2)c1` was tested, and the GI50 (MOLT-4) was > 100 µM (inactive), the GI50 (MDA-N) was > 100 µM (inactive) and the GI50 (UACC-62) was > 100 µM (inactive). The GI50 (SN12C) was > 100 µM (inactive), the GI50 (SNB-19) was > 100 µM (inactive) and the GI50 (U-251) was > 100 µM (inactive). The GI50 (LOX IMVI) was > 100 µM (inactive), the GI50 (786-0) was > 100 µM (inactive) and the GI50 (SK-OV-3) was > 100 µM (inactive). For the same compound, the GI50 (HCT-15) was greater than 100 µM, the GI50 (COLO 205) was > 100 µM (inactive) and the GI50 (UO-31) was > 100 µM (inactive). For the same compound, the GI50 (HOP-92) was > 100 µM (inactive), the GI50 (HCC 2998) was > 100 µM (inactive) and the GI50 (KM12) was > 100 µM (inactive). The GI50 (NCI-H226) was > 100 µM (inactive), the GI50 (SW-620) was > 100 µM (inactive) and the GI50 (OVCAR-4) was > 100 µM (inactive). For the same compound, the GI50 (M14) was > 100 µM (inactive), the GI50 (SK-MEL-28) was > 100 µM (inactive) and the GI50 (MCF7) was > 100 µM (inactive). For the same compound, the GI50 (EKVX) was > 100 µM (inactive), the GI50 (SK-MEL-2) was > 100 µM (inactive) and the GI50 (DU-145) was > 100 µM (inactive). The GI50 (A498) was > 100 µM (inactive), the GI50 (ACHN) was > 100 µM (inactive) and the GI50 (SF-539) was > 100 µM (inactive). For the same compound, the GI50 (NCI/ADR-RES) was > 100 µM (inactive), the GI50 (OVCAR-3) was > 100 µM (inactive) and the GI50 (MDA-MB-435) was > 100 µM (inactive). For the same compound, the GI50 (K562) was > 100 µM (inactive), the GI50 (HCT-116) was > 100 µM (inactive) and the GI50 (PC-3) was > 100 µM (inactive). For the same compound, the GI50 (SNB-75) was > 100 µM (inactive), the GI50 (TK-10) was > 100 µM (inactive) and the GI50 (SF-295) was > 100 µM (inactive). The GI50 (RPMI-8226) was > 100 µM (inactive), the GI50 (CAKI-1) was > 100 µM (inactive) and the GI50 (CCRF-CEM) was > 100 µM (inactive). For the same compound, the GI50 (RXF 393) was > 100 µM (inactive), the GI50 (SK-MEL-5) was > 100 µM (inactive) and the GI50 (UACC-257) was > 100 µM (inactive). The GI50 (MDA-MB-231) was > 100 µM (inactive), the GI50 (OVCAR-5) was > 100 µM (inactive) and the GI50 (HOP-62) was > 100 µM (inactive). For the same compound, the GI50 (T47D) was > 100 µM (inactive), the GI50 (SF-268) was > 100 µM (inactive) and the GI50 (A549) was > 100 µM (inactive). For the same compound, the GI50 (Hs-578T) was > 100 µM (inactive).

In the case of `Cc1cc(O)c2c(c1)C(=O)C=CC2=O` [RAMENTACEONE], the GI50 (MOLT-4) is reported as 424 nM (active) and 298 nM (active), the GI50 (MDA-N) is reported as 2.21 µM (inactive) and 3.56 µM (inactive) and the GI50 (UACC-62) is reported as 4.72 µM (inactive) and 7.38 µM (inactive). The GI50 (SN12C) was 7.76 µM (inactive) and 12.1 µM (inactive), the GI50 (SNB-19) was 20.6 µM (inactive) and 17.1 µM (inactive) and the GI50 (LOX IMVI) was 3.04 µM (inactive) and 5.55 µM (inactive). For the same compound, the GI50 (SK-OV-3) was 27.9 µM (inactive) and 28 µM (inactive), the GI50 (COLO 205) was 3.92 µM (inactive) and 2.74 µM (inactive) and the GI50 (UO-31) was 4.69 µM (inactive) and 2.91 µM (inactive). For the same compound, the GI50 (HCC 2998) was 11.2 µM (inactive) and 15.6 µM (inactive), the GI50 (KM12) was 14.1 µM (inactive) and 16.1 µM (inactive) and the GI50 (NCI-H226) was 18.6 µM (inactive) and 17.8 µM (inactive). The GI50 (M14) was 6.68 µM (inactive) and 8.77 µM (inactive), the GI50 (IGROV-1) was 14.1 µM (inactive) and 9.38 µM (inactive) and the GI50 (MCF7) was 7.05 µM (inactive) and 4.79 µM (inactive). For the same compound, the GI50 (SK-MEL-2) was 14.9 µM (inactive) and 19.1 µM (inactive), the GI50 (DU-145) was 19.7 µM (inactive) and 16.4 µM (inactive) and the GI50 (HT-29) was 7.05 µM (inactive) and 5.74 µM (inactive). The GI50 (A498) was 22 µM (inactive) and 31.4 µM (inactive), the GI50 (NCI-H23) was 8.39 µM (inactive) and 12.4 µM (inactive) and the GI50 (SF-539) was 16.9 µM (inactive) and 14.9 µM (inactive). The GI50 (NCI/ADR-RES) was 8.15 µM (inactive) and 15.9 µM (inactive), the GI50 (OVCAR-3) was 1.66 µM (inactive) and 2.27 µM (inactive) and the GI50 (HCT-116) was 4.34 µM (inactive) and 3.72 µM (inactive). For the same compound, the GI50 (PC-3) was 11.2 µM (inactive) and 17.7 µM (inactive), the GI50 (SNB-75) was 15.5 µM (inactive) and 16.6 µM (inactive) and the GI50 (SF-295) was 16.5 µM (inactive) and 17.4 µM (inactive). For the same compound, the GI50 (CCRF-CEM) was 121 nM (active) and 212 nM (active), the GI50 (RXF 393) was 4.41 µM (inactive) and 2.7 µM (inactive) and the GI50 (UACC-257) was 5.25 µM (inactive) and 4.05 µM (inactive). The GI50 (MDA-MB-231) was 5.06 µM (inactive) and 9.31 µM (inactive), the GI50 (OVCAR-5) was 19.4 µM (inactive) and 18 µM (inactive) and the GI50 (HOP-62) was 19.5 µM (inactive) and 21 µM (inactive). The GI50 (T47D) was 2.65 µM (inactive) and 3.11 µM (inactive), the GI50 (SF-268) was 17.7 µM (inactive) and 10.4 µM (inactive) and the GI50 (A549) was 25.4 µM (inactive) and 19.1 µM (inactive). For the same compound, the GI50 (Hs-578T) was 19.4 µM (inactive) and 15.7 µM (inactive) and the GI50 (NCI-H460) was 19.3 µM (inactive) and 16.3 µM (inactive).
